This assay has as its target T1, neuropilin 1 (Nrp1) (Mus musculus, UniProt P97333).
T1 construct: a1a2 domain (residues 23−269), His6-tag, pCold-ProS2 vector, E. coli
T1 sequence (P97333 23-269): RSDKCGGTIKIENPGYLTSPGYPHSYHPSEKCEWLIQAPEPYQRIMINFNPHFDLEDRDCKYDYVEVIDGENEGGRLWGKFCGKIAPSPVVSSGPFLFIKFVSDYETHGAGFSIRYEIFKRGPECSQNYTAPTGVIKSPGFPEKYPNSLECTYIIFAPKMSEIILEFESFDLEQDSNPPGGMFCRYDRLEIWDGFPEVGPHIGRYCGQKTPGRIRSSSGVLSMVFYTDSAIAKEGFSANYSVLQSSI
The experiment in a line: quantitative fluorescent dot-blot saturation binding to purified a1a2.

Consider d4t,8t-NBD-Ceramide, for which the affinity, expressed as Kd, was 114 ± 5 nM.
